Legend:
neocortical neuron = experiment: Single-cell recording with microdialysis drug delivery via minivalve, neocortex of freely moving rat; assay type: in vivo
Method: The experiment was performed on a freely moving rat which carried the minivalve 100 of the present invention on its head as illustrated in FIG. 1.

[1] = tested on: single neuron, in the hippocampus; experiment: Single-cell recording/microdialysis study with minivalve, hippocampus of freely moving rat; assay type: in vivo
Text: Referring now to FIGS. 6a-6c, there is illustrated graphical data from a single-cell recording/microdialysis study performed with the minivalve 100 of the present invention. The recordings were made from the same single neuron, in the hippocampus of the freely moving rat 102 having the minivalve 100 mounted on its head, as illustrated in FIG. 1.

Row | Structure (SMILES) | effect on firing of a neocortical neuron, first drug perfusion (neocortical neuron; 500 μM NMDA via microdialysis probe, freely moving rat) | time to effect after the minivalve switch (neocortical neuron; 500 μM NMDA, first perfusion, switch from position 1 to position 2) [min] | effect on firing of a neocortical neuron, second delivery (neocortical neuron; second NMDA delivery after wash-out) | effect of third exposure (neocortical neuron; third NMDA exposure three hours later) | effect on firing of hippocampal neuron, subsequent application ([1]; NMDA application through the probe after the second ethanol delivery) | effect on cell firing in the neocortex (neocortical neuron; ethanol delivered via microdialysis for two minutes, freely moving rat) | time to effect after the minivalve was switched (neocortical neuron; ethanol, neocortex) | effect on firing of hippocampal neuron, first perfusion ([1]; first ethanol perfusion into hippocampus recording site) | time to effect after minivalve activation ([1]; first ethanol perfusion, hippocampus) | effect on firing of hippocampal neuron, second delivery ([1]; second ethanol delivery, same neuron)
1 | CN[C@H](CC(=O)O)C(=O)O [NMDA] | brief firing rate increase at point D, followed by a silent period | ≤ 1 | ineffective | clear excitatory effects associated with an EEG seizure | initial firing rate increase, followed by electrical silence |  |  |  |  | 
2 | CCO [ethanol] |  |  |  |  |  | instant cell firing suppressant effect | within one minute | suppressed the firing of the recorded neuron | as quickly as two minutes | ineffective

Reference: US6602220B1, “Miniature air-controlled drug selector and delivery device portable by small animals” (The Research Foundation of State University of New York, priority 2000, dated 2003)
